According to US20100035943A1, “Oxa-and thiadiazoles and their use as metalloproteinase inhibitors” (VERNALIS (OXFORD) LTD, priority 2002, published 2010):
pIC50: −log10 of the molar value.

Experiments:
metalloelastase (MMP12) = metalloelastase (MMP12) (Homo sapiens, UniProt P39900); assay: MMP12 enzyme inhibition assay (fluorogenic peptide substrate McaPLGLDpaAR); assay type: biochemical; conditions: protocol as for MMP9 assay
Protocol: (§1) Stock solutions were made up as follows: • Assay Buffer: 100 mM Tris-HCl pH 7.6 containing 100 mM NaCl, 10 mM CaCl2, and 0.05% Brij 35 • Substrate: 0.4 mM McaPLGLDpaAR (from Bachem) (0.437 mg/ml) stock solution in 100% DMSO (stored at −20° C.). Dilute to 8 μM in assay buffer. • Enzyme: Recombinant human 92 kDa gelatinase (MMP-9; APMA (4-aminophenyl • mercuric acetate)—activated if necessary) appropriately diluted in assay buffer.
(§2) Test Compounds were prepared initially as 10 mM compound solution in 100% DMSO, diluted to 1 mM in 100% DMSO, then serially diluted 3-fold in 100% DMSO across columns 1-10 of a 96-well microtitre plate Assay concentration range, 100 μM (column 1) to 5.1 nM (column 10)
(§3) The assay was performed in a total volume of 100 μl per well in 96-well microtitre plates. Activated enzyme (20 μl) was added to the wells followed by 20 μl of assay buffer. Appropriate concentrations of test compounds dissolved in 10 μl of DMSO were then added followed by 50 μl of McaPLGLDpaAR (8 μM, prepared by dilution of DMSO stock in assay buffer). For each assay ten concentrations of test compound were examined in duplicate. Control wells lack either enzyme or test compound. The reactions were incubated at 37° C. for 2 hours. The fluorescence at 405 nm was measured immediately with an SLT Fluostar fluorometer (SLT Labinstruments GmbH, Grödig, Austria) using 320 nm excitation, without stopping the reaction.
(§4) The effect of the test compound was determined from the dose response curve generated by the 10 duplicate concentrations of inhibitor. The IC50 (the concentration of compound required to give a 50% decrease in enzyme activity) was obtained by fitting data to the equation, Y=a+((b−a)/(1+(c/X)^d)). (Y=inhibition achieved for a particular dose; X=the dose in nM; a=minimum y or zero % inhibition; b=maximum y or 100% inhibition; c=is the IC50; d=is the slope). The result was rounded to one significant figure.
(§5) Compounds were tested for inhibitory activity against metalloelastase (MMP12) in an assay using a coumarin-labelled peptide substrate, (7-methoxycoumarin-4-yl)acetyl-Pro-Leu-Gly-Leu-(3-[2,4-dinitrophenyl]-L-2,3-diaminopropionyl)-Ala-Arg-NH2 (McaPLGLDpaAR) (Knight et al, FEBS Lett. 1992; 263-266). The protocol for this assay was as described for the MMP9 assay above.

92 kDa gelatinase (MMP9) = 92 kDa gelatinase (MMP9) (Homo sapiens, UniProt P14780); assay: MMP9 enzyme inhibition assay (fluorogenic peptide substrate McaPLGLDpaAR); assay type: biochemical; conditions: recombinant human 92 kDa gelatinase, 37° C., 2 hours
92 kDa gelatinase (MMP9), sequence (P14780 107-707 limits assumed): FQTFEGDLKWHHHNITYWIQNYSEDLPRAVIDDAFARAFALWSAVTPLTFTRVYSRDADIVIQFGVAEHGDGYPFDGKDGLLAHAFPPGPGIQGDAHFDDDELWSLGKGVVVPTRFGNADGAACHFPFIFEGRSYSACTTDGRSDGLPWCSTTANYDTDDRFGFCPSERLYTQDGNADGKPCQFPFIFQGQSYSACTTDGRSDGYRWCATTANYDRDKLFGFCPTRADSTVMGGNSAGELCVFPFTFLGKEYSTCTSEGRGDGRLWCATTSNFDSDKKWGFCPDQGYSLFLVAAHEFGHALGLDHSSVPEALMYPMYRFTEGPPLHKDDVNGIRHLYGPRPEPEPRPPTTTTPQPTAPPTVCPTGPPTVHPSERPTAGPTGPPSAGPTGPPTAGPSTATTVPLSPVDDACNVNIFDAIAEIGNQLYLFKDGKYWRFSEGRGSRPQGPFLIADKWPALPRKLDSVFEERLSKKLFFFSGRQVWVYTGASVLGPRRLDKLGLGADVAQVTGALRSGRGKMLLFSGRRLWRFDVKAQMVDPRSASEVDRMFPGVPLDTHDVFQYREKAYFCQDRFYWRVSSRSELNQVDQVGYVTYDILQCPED
Protocol: Compounds were tested for inhibitory activity against 92 kDa gelatinase (MMP9) in an assay using a coumarin-labelled peptide substrate, (7-methoxycoumarin-4-yl)acetyl-Pro-Leu-Gly-Leu-(3-[2,4-dinitrophenyl]-L-2,3-diaminopropionyl)-Ala-Arg-NH2 (McaPLGLDpaAR) (Knight et al, FEBS Lett. 1992; 263-266).
as §1, §2, §3, §4

[1] = system: IL2-induced lymphocyte recruitment; assay: IL2-induced peritoneal recruitment of lymphocytes; assay type: in vivo, C3H/HEN mice; conditions: mice, Subcutaneous route, 15 min prior to IL2, cells counted 24 hours after IL2
Protocol: Administration of IL2 intraperitoneally causes migration of lymphocytes into the intraperitoneal cavity. This is a model for the cellular migration that occurs during inflammation.
C3H/HEN mice (Elevage Janvier, France) were intraperitoneally injected with IL2 (Serono Pharmaceutical Research Institute, 20 μg/kg, in saline). Compounds of the invention were suspended in 0.5% carboxymethylcellulose (CMC)/0.25% tween-20 and were administered by sc or po route (10 ml/kg) 15 min prior to administration of IL2.
Twenty-four hours after administration of IL2, peritoneal white blood cells were collected by 3 successive lavages of the peritoneal cavity with 5 ml phosphate buffered saline (PBS)-1 mM EDTA (+4° C.). The suspension was centrifuged (1700 g×10 min at +4° C.). The resulting pellet was suspended in 1 ml PBS-1 mM EDTA.
Lymphocytes were identified and counted using a Beckman/Coulter counter.
The animals were divided into 5 groups (6 mice each group):
Group 1: (baseline) received 0.5% CMC/0.25% tween-20 (vehicle of compound of the invention) and saline (vehicle of IL2); Group 2: (control IL2) received 0.5% CMC/0.25% tween-20 and injection of IL2; Group 3: Experimental group (Compound of the invention Dose 1) received a compound of the invention and injection of IL2; Group 4: Experimental group (Compound of the invention Dose 2) received a compound of the invention and injection of IL2; Group 5: Experimental group (Compound of the invention Dose 3) received a compound of the invention and injection of IL2; Group 6: Reference group received reference compound dexamethasone and injection of IL2
Inhibition of lymphocyte recruitment was calculated as follows:
Where Ly 1=Number of lymphocytes in group 1 (E3/μl), Ly 2=Number of lymphocytes in group 2 (E3/μl), Ly X=Number of lymphocytes in group X (3-5) (E3/μl)
The dose of compound of the invention required to inhibit lymphocyte recruitment by 50% (ID50) was calculated using a curve-fitting routine.

collagenase (MMP1) = target: T1, collagenase (MMP1) (Homo sapiens, UniProt P03956); assay: MMP1 enzyme inhibition assay (fluorogenic peptide substrate McaPLGLDpaAR); assay type: biochemical; conditions: protocol as for MMP9 assay
T1 sequence (P03956 100-469): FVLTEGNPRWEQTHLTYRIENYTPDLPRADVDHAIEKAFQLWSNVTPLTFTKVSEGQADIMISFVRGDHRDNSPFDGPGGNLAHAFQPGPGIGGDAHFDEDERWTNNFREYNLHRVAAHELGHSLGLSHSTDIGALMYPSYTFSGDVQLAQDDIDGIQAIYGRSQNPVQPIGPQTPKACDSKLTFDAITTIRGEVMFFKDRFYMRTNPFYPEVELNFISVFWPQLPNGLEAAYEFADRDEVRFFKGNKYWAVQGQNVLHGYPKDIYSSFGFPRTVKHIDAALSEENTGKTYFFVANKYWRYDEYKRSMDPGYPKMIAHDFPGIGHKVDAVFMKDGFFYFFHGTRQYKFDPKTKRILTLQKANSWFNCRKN
Protocol: as §1, §2, §3, §4
as §5, with “• Compounds” for “Compounds”, “collagenase (MMP1)” for “metalloelastase (MMP12)”

metalloelastase (MMP12), sequence (P39900 106-470): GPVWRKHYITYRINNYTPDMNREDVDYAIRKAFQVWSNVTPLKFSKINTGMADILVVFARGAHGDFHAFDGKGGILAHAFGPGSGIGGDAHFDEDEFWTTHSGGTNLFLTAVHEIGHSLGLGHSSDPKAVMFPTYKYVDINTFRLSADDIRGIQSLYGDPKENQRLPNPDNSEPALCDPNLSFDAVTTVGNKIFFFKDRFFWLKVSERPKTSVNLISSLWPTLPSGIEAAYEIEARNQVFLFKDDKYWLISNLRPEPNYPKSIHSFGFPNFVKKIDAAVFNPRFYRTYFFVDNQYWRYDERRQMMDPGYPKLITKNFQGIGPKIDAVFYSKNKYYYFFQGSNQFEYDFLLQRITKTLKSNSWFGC

Row | SMILES | pIC50 (metalloelastase (MMP12)) | pIC50 (92 kDa gelatinase (MMP9)) | ID50 for inhibition of IL2-induced peritoneal recruitment of lymphocytes [1] [mg/kg] | pIC50 (collagenase (MMP1))
1 | CC(C)C[C@@H](C(=O)N[C@H](c1noc(-c2ccco2)n1)C(C)(C)C)[C@H](O)C(=O)NO [Example 5, 2S-Hydroxy-3R-[1S-(5-furan-2-yl-[1,2,4]oxadiazol-3-yl)-2,2-dimethyl-propylcarbamoyl]-5-methyl Hexanohydroxamic Acid] | > 7.00 | 6.00 to 7.00 | 1 | 6.00 to 7.00
2 | CC(C)C[C@@H](C(=O)N[C@H](c1nc(-c2ccccc2)no1)C(C)C)[C@H](O)C(=O)NO [Example 19, 2S, N1-Dihydroxy-3R-isobutyl-N4-[2-methyl-1S-(3-phenyl-[1,2,4]oxadiazol-5-yl)-propyl]-succinamide] | > 7.00 | 6.00 to 7.00 | – | 6.00 to 7.00
3 | C=CC[C@H](C(=O)NO)[C@@H](CC(C)C)C(=O)N[C@@H](Cc1ccccc1)c1nc(-c2ccccc2)no1 [Example 20, 2S-Allyl-5-methyl-3R-[2-phenyl-1S-(3-phenyl-[1,2,4]oxadiazol-5-yl)-ethylcarbamoyl]-hexanohydroxamic Acid] | > 7.00 | > 7.00 | – | 6.00 to 7.00
4 | C=CC[C@H](C(=O)NO)[C@@H](CC(C)C)C(=O)N[C@@H](Cc1ccccc1)c1nc(C(C)C)no1 [Example 21, 2S-Allyl-5-methyl-3R-[2-phenyl-1S-(3-isopropyl-[1,2,4]oxadiazol-5-yl)-ethylcarbamoyl]-hexanohydroxamic Acid] | > 7.00 | > 7.00 | – | 6.00 to 7.00
5 | C=CC[C@H](C(=O)NO)[C@@H](CC(C)C)C(=O)N[C@H](c1nc(C)no1)C(C)(C)C [Example 23, 2S-Allyl-3R-[2,2-dimethyl-I S-(3-methyl-[1,2,4]oxadiazol-5-yl)-propylcarbamoyl]-5-methyl-hexanohydroxamic Acid] | > 7.00 | > 7.00 | – | 6.00 to 7.00
6 | CC(C)C[C@H](CC(=O)NO)C(=O)N[C@H](c1nc(-c2ccccc2)no1)C(C)(C)C [Example 24, 3R-[2,2-Dimethyl-1S-(3-phenyl-[1,2,4]oxadiazol-5-yl)-propylcarbamoyl]-5-methyl-hexanohydroxamic Acid] | > 7.00 | 5.00 to 6.00 | – | 5.00 to 6.00
7 | CO[C@H](C(=O)NO)[C@@H](CC(C)C)C(=O)N[C@@H](Cc1ccccc1)c1nc(C)no1 [Example 25, 2S-Methoxy-5-methyl-3R-[1S-(3-methyl-[1,2,4]oxadiazol-5-yl)-2-phenyl-ethylcarbamoyl]-hexanohydroxamic Acid] | > 7.00 | 6.00 to 7.00 | – | 6.00 to 7.00
8 | CC(C)C[C@@H](C(=O)N[C@H](c1noc(-c2cccs2)n1)C(C)(C)C)[C@H](O)C(=O)O [Example 29, 3R-[2,2-Dimethyl-1S-(5-thiophen-2-yl-[1,2,4]oxadiazol-3-yl)-propylcarbamoyl]-2S-hydroxy-5-methyl-hexanoic Acid] | 6.00 to 7.00 | 5.00 to 6.00 | – | 5.00 to 6.00
9 | CC(C)C[C@@H](C(=O)N[C@H](c1noc(-c2ccco2)n1)C(C)(C)C)[C@H](O)C(=O)O [Example 30, 3R-[1S-(5-Furan-2-yl-[1,2,4]oxadiazol-3-yl)-2,2-dimethyl-propylcarbamoyl]-2S-hydroxy-5-methyl-hexanoic Acid] | 5.00 to 6.00 | < 5.00 | – | < 5.00
10 | CC(C)(C)[C@H](NC(=O)[C@H](C/C=C/c1ccccc1)[C@H](O)C(=O)NO)c1nc(-c2ccccc2)no1 [Example 31, N4-[2,2-Dimethyl-1S-(3-phenyl-[1,2,4]oxadiazol-5-yl)-propyl]-2S,N1-dihydroxy-3R-(3-phenyl-allyl)-succinamide] | 6.00 to 7.00 | < 5.00 | – | < 5.00
11 | CC(C)c1noc([C@@H](NC(=O)[C@H](CC2CCCC2)[C@H](O)C(=O)NO)C(C)(C)C)n1 [Example 32, 2R-Cyclopentylmethyl-3S,N4-dihydroxy-N1-[1S-(3-isopropyl-[1,2,4]oxadiazol-5-yl)-2,2-dimethyl-propyl]-succinamide] | > 7.00 | > 7.00 | – | > 7.00
12 | CC(C)(C)[C@H](NC(=O)[C@H](CCCc1cc(C(F)(F)F)cc(C(F)(F)F)c1)[C@H](O)C(=O)NO)c1noc(-c2cccs2)n1 [Example 33, 2R-[3-(3,5-Bis-trifluoromethyl-phenyl)-propyl]-N1-[2,2-dimethyl-1S-(5-thiophen-2-yl-[1,2,4]oxadiazol-3-yl)-propyl]-3S, N4-dihydroxy-succinamide] | 6.00 to 7.00 | < 5.00 | – | < 5.00
13 | CC(C)(C)[C@H](NC(=O)[C@H](CCCc1cc(C(F)(F)F)cc(C(F)(F)F)c1)[C@H](O)C(=O)NO)c1noc(-c2ccco2)n1 [Example 34, 2R-[3-(3,5-Bis-trifluoromethyl-phenyl)-propyl]-N1-[1S-(5-furan-2-yl-[1,2,4]oxadiazol-3-yl)-2,2-dimethyl-propyl]-3S,N4-dihydroxy-succinamide] | < 5.00 | < 5.00 | – | < 5.00
14 | CCOc1ccc(CCC[C@@H](C(=O)N[C@H](c2noc(-c3ccco3)n2)C(C)(C)C)[C@H](O)C(=O)NO)cc1 [Example 35, 2R-[3-(4-Ethoxy-phenyl)-propyl]-N1-[1S-(5-furan-2-yl-[1,2,4]oxadiazol-3-yl)-2,2-dimethyl-propyl]-3S,N4-dihydroxy-succinamide] | > 7.00 | > 7.00 | – | < 5.00
15 | C[C@@H]1C[C@H]2[C@@H]3CCC4=CC(=O)C=C[C@]4(C)[C@@]3(F)[C@@H](O)C[C@]2(C)[C@@]1(O)C(=O)CO [dexamethasone, reference compound] | – | – | 0.05 | –
